From ChEMBL document CHEMBL1124582, “Design of potential anti-HIV agents. 1. Mannosidase inhibitors” (J Med Chem, 1989)

Assay: Inhibitory activity against Mannosidase in rat liver

Compared with `O[C@H]1[C@@H]2[C@H](O)CCCN2C[C@H]1O`, `O[C@@H]1[C@H]2[C@@H](O)CCCN2C[C@H]1O` is 5-fold higher in IC50: roughly 10 µM for the first, roughly 50 µM for the second.

First: OC1CN2CCCCC2C1O (centres undefined)
Second: O[C@H]1[C@H]2[C@@H](O)CCCN2C[C@H]1O
The IC50 of the first is 150-fold higher: 7500 µM for the first, roughly 50 µM for the second. The second is the more potent here.
